Here are results for 24 compounds from US6727245B2, “Heterobicyclic derivatives” (Fujisawa Pharmaceutical Co., Ltd., priority 1994, dated 2004).

The structures appear in SMILES notation.

On to `COc1ccc2cc(-c3cccc(-n4c(=O)c(Cc5cccnc5)nc5cccnc54)c3)ccc2c1` [Example 54(24), 4-[3-(6-Methoxy-2-naphthyl)phenyl]-2-(3-pyridylmethyl)-3-oxo-3,4-dihydropyrido[2,3-b]pyrazine], for which the melting point was 228 to 231 °C.
`O=c1c(Cc2cccnc2)nc2cccnc2n1-c1cccc(-n2ccc3ccccc32)c1` [Example 45(18), 4-[3-(1-Indolyl)phenyl]-2-(3-pyridylmethyl)-3-oxo-3,4-dihydropyrido[2,3-b]pyrazine] had a melting point of 166 to 168 °C.
The compound `O=c1c(Cc2ccccc2)nc2cccnc2n1-c1cccc(-c2nc3ccccc3s2)c1` [Example 45(8), 2-Benzyl-4-[3-(benzothiazol-2-yl)phenyl]-3-oxo-3,4-dihydropyrido[2,3-b]pyrazine] came in with a melting point of 197 to 198 °C.
For `O=c1c(Cc2cccnc2)nc2cccnc2n1-c1cccc(-c2cnc3ccccc3c2)c1` [Example 54(26), 4-[3-(3-Quinolyl)phenyl]-2-(3-pyridylmethyl)-3-oxo-3,4-dihydropyrido[2,3-b]pyrazine] the value was 237 °C; for `COC(=O)c1cccc(-n2c(=O)c(Cc3cccnc3)nc3cccnc32)c1` [Example 45(12), 4-(3-Methoxycarbonylphenyl)-2-(3-pyridylmethyl)-3-oxo-3,4-dihydropyrido[2,3-b]pyrazine], 208 to 210 °C.
For `O=c1c(Cc2ccccc2)nc2cccnc2n1-c1cccc(C(F)(F)F)c1` [Example 45(10), 2-Benzyl-4-(3-trifluoromethylphenyl)-3-oxo-3,4-dihydropyrido[2,3-b]pyrazine] the value was 125 to 127 °C; for `CCOc1ccc2nc(Cc3ccccc3)c(=O)n(-c3cccc(NC(C)=O)c3)c2n1` [Example 16(16), 4-(3-Acetamidophenyl)-2-benzyl-6-ethoxy-3-oxo-3,4-dihydropyrido[2,3-b]pyrazine], 212 to 214 °C; for `COc1ccccc1NC(=O)Nc1cccc(-n2c(=O)c(CCC(=O)ON3C(=O)CCC3=O)nc3cccnc32)c1` [Example 23, 4-[3-[3-(2-methoxyphenyl)ureido]-phenyl]-3-oxo-2-[2-succinimidooxycarbonylethyl)-3,4-dihydropyrido[2,3-b]pyrazine], 235 to 237 °C.
The compound `O=c1c(Cc2ccccc2)nc2cccnc2n1-c1cccc(-n2cccc2)c1` [Example 68(15), 2-Benzyl-4-[3-(pyrrol-1-yl)phenyl]-3-oxo-3,4-dihydropyrido[2,3-b]pyrazine] gave a melting point of 169 to 170 °C.
For `CCNC(=O)Nc1cccc(-c2cccc(-n3c(=O)c(Cc4cccnc4)nc4cccnc43)c2)c1` [Example 73, 4-[3-[3-(3-Ethylureido)phenyl]phenyl]-2-(3-pyridylmethyl)-3-oxo-3,4-dihydropyrido[2,3-b]pyrazine] the value was 257 to 258 °C; for `COc1ccccc1NC(=O)Nc1cccc(-n2c(=O)c(Cc3ccccc3)nc3cccnc32)c1` [Example 45(6), 2-Benzyl-4-[3-[3-(2-methoxyphenyl)ureido]phenyl]-3-oxo-3,4-dihydropyrido[2,3-b]pyrazine], 238 to 239 °C.
Under `CCC(=O)Nc1cccc(-c2cccc(-n3c(=O)c(Cc4cccnc4)nc4cccnc43)c2)c1` [Example 76(5), 4-[3-(3-Propionylaminophenyl)phenyl]-2-(3-pyridylmethyl)-3-oxo-3,4-dihydropyrido[2,3-b]pyrazine] stands 223 to 224 °C.
For `COC(=O)c1cccc(-c2cccc(-n3c(=O)c(Cc4cccnc4)nc4cccnc43)c2)c1` [Example 54(28), 4-[3-(3-Methoxycarbonylphenyl)phenyl]-2-(3-pyridylmethyl)-3-oxo-3,4-dihydropyrido[2,3-b]pyrazine] the value was 179 to 181 °C; for `COc1ccccc1NC(=O)Nc1cccc(-n2c(=O)c(Cc3cccnc3)nc3cccnc32)c1` [Example 50(4), 4-[3-[3-(2-Methoxyphenyl)ureido]phenyl]-2-(3-pyridylmethyl)-3-oxo-3,4-dihydropyrido[2,3-b]pyrazine], 163 to 169 °C.
For the compound `O=C(/C=C(\C(=O)O)c1ccccc1)Nc1cccc(-c2cccc(-n3c(=O)c(Cc4cccnc4)nc4cccnc43)c2)c1` [Example 82(2), 4-[3-[3-[(Z)-3-Carboxy-3-phenylacryloylamino]phenyl]phenyl]-2-(3-pyridylmethyl)-3-oxo-3,4-dihydropyrido[2,3-b]pyrazine], the melting point is 189 to 198 °C (dec.).
Under `CC(=O)Nc1cccc(-c2cccc(-n3c(=O)c(Cc4cccnc4)nc4cccnc43)c2)c1` [Example 54(31), 4-[3-(3-Acetamidophenyl)phenyl]-2-(3-pyridylmethyl)-3-oxo-3,4-dihydropyrido[2,3-b]pyrazine] stands 188 to 194 °C; under `CNC(=O)Nc1cccc(-c2cccc(-n3c(=O)c(Cc4cccnc4)nc4cccnc43)c2)c1` [Example 72, 4-[3-[3-(3-Methylureido)phenyl]phenyl]-2-(3-pyridylmethyl)-3-oxo-3,4-dihydropyrido[2,3-b]pyrazine], 248 to 252 °C.
For `O=c1c(Cc2ccc(O)cc2)nc2cccnc2n1-c1cccc(-n2cccc2)c1` [Example 68(16), 2-(4-Hydroxybenzyl)-4-[3-(pyrrol-1-yl)phenyl]-3-oxo-3,4-dihydropyrido[2,3-b]pyrazine] the value was 263 °C; for `COc1ccccc1NC(=O)Nc1cccc(-n2c(=O)c(Cc3ccc(O)cc3)nc3cccnc32)c1` [Example 16(13), 2-(4-Hydroxyphenylmethyl)-3-oxo-4-[3-[3-(2-methoxyphenyl)ureido]phenyl]-3,4-dihydropyrido-[2,3-b]pyrazine], 220 to 221 °C.
For `COc1ccccc1NC(=O)Nc1cccc(-n2c(=O)c(CCC(=O)O)nc3cccnc32)c1` [Example 16(12), 2-(2-Carboxyethyl)-3-oxo-4-[3-[3-(2-methoxyphenyl)-ureido]phenyl]-3,4-dihydropyrido[2,3-b]pyrazine] the value was 143 to 153 °C (dec.); for `COC(=O)CCc1nc2cccnc2n(-c2cccc(NC(=O)Nc3ccccc3OC)c2)c1=O` [Example 34(2), 2-(2-Methoxycarbonylethyl)-3-oxo-4-[3-[3-(2-methoxyphenyl)ureido]phenyl]-3,4-dihydropyrido-[2,3-b]pyrazine], 194 to 196 °C.
In turn, `O=c1c(Cc2cccnc2)nc2cccnc2n1-c1cccc(C(F)(F)F)c1` [Example 45(14), 4-(3-Trifluoromethylphenyl)-2-(3-pyridylmethyl)-3-oxo-3,4-dihydropyrido[2,3-b]pyrazine] returned a melting point of 88 to 90 °C.
For `O=c1c(Cc2cccnc2)nc2cccnc2n1-c1cccc(-c2cccc3ccccc23)c1` [Example 45(19), 4-[3-(1-Naphthyl)phenyl]-2-(3-pyridylmethyl)-3-oxo-3,4-dihydropyrido[2,3-b]pyrazine] the value was 162 to 165 °C; for `O=C(Nc1cccc(-c2cccc(-n3c(=O)c(Cc4cccnc4)nc4cccnc43)c2)c1)c1cnc2ccccc2n1` [Example 76(4), 4-[3-[3-(2-Quinoxalinylcarbonylamino)phenyl]phenyl]-2-(3-pyridylmethyl)-3-oxo-3,4-dihydropyrido[2,3-b]pyrazine], 206 to 209 °C.

In general, melting point refers to the temperature, or range, at which the solid turns liquid.
